Laboratory results published in patent US9499537B2, “Antiviral pyrrolopyridine derivatives and method for preparing the same” (KOREA RESEARCH INSTITUTE OF CHEMICAL TECHNOLOGY, priority 2011, dated 2016).

Test system: MT-4 cells
Experiment: Cytotoxicity test in MT-4 cells (MTT method)
Assay type: cell-based
Details: human
Procedure: In order to look into the HIV-1 inhibition effects of the compound of the present invention, an in vitro test for HIV-1 inhibition effects was carried out as follows according to a known method (H. Tanaka et al., J. Med. Chem., 1991, 34, 349). MT-4 cells were used as host cells, and the degree of the compound of the present invention inhibiting the cytotoxicity of the virus-infected MT-4 cells was investigated.
First, MT-4 cells were diffused at a concentration of 1×10^4 cell/well to a culture medium, and HIV-1 was inoculated so that the concentration was 500 TCI50 (concentration at which 50% of the cell is infected)/well. Immediately after the inoculation, the cell dispersion was transferred in 100 μL each to a flat microtiter plate in which the sample of the compound of the present invention was placed. The sample was incubated for approximately for 4 to 5 days at […], and the virus suppression effect was determined using an MTT method. In addition, the cytotoxicity was also determined by measuring the survivability of the experimentally virus-infected cells using an MTT method. As a comparative compound, azidothymidine (AZT) and raltegravir were used.

| Structure (SMILES) | CC60 (μM) ** : concentration at 50% cell damage with respect to MT-4 cells |
| --- | --- |
| Cc1nc2c(c(C)c(C)n2C)c(-c2ccc(Cl)cc2)c1C(OC(C)(C)C)C(=O)O (stereo not drawn) [Example 1, 2-Tert-butoxy-2-(4-(4-chlorophenyl)-1,2,3,6-tetramethyl-1H-pyrrolo[2,3-b]pyridin-5-yl)acetic acid] | 25 µM |
| CCn1c(C)c(C)c2c(-c3ccc(Cl)cc3)c(C(OC(C)(C)C)C(=O)O)c(C)nc21 (stereo not drawn) [Example 2, 2-Tert-butoxy-2-(4-(4-chlorophenyl)-1-ethyl-2,3,6-trimethyl-1H-pyrrolo[2,3-b]pyridin-5-yl)acetic acid] | >233 µM |
| C=CCn1c(C)c(C)c2c(-c3ccc(Cl)cc3)c(C(OC(C)(C)C)C(=O)O)c(C)nc21 (stereo not drawn) [Example 3, 2-(1-Allyl-4-(4-chlorophenyl)-2,3,6-trimethyl-1H-pyrrolo[2,3-b]pyridin-5-yl)-2-tert-butoxyacetic acid] | 26.19 µM |
| Cc1nc2c(c(C)c(C)n2CC2CC2)c(-c2ccc(Cl)cc2)c1C(OC(C)(C)C)C(=O)O (stereo not drawn) [Example 4, 2-Tert-butoxy-2-(4-(4-chlorophenyl)-1-(cyclopropylmethyl)-2,3,6-trimethyl-1H-pyrrolo[2,3-b]pyridin-5-yl)acetic acid] | 18 µM |
| Cc1nc2c(c(C)c(C)n2Cc2ccccc2)c(-c2ccc(Cl)cc2)c1C(OC(C)(C)C)C(=O)O (stereo not drawn) [Example 5, 2-(1-Benzyl-4-(4-chlorophenyl)-2,3,6-trimethyl-1H-pyrrolo[2,3-b]pyridin-5-yl)-2-tert-butoxyacetic acid] | 17 µM |
| Cc1nc2c(c(C)c(C)n2Cc2cccc(Cl)c2)c(-c2ccc(Cl)cc2)c1C(OC(C)(C)C)C(=O)O (stereo not drawn) [Example 6, 2-Tert-butoxy-2-(1-(3-chlorobenzyl)-4-(4-chlorophenyl)-2,3,6-trimethyl-1H-pyrrolo[2,3-b]pyridin-5-yl)acetic acid] | 9.74 µM |
| Cc1nc2c(c(C)c(C)n2Cc2ccc(F)cc2)c(-c2ccc(Cl)cc2)c1C(OC(C)(C)C)C(=O)O (stereo not drawn) [Example 8, 2-Tert-butoxy-2-(4-(4-chlorophenyl)-1-(4-fluorobenzyl)-2,3,6-trimethyl-1H-pyrrolo[2,3-b]pyridin-5-yl)acetic acid] | 12.8 µM |
| COc1ccc(Cn2c(C)c(C)c3c(-c4ccc(Cl)cc4)c(C(OC(C)(C)C)C(=O)O)c(C)nc32)cc1 (stereo not drawn) [Example 9, 2-Tert-butoxy-2-(4-(4-chlorophenyl)-1-(4-methoxybenzyl)-2,3,6-trimethyl-1H-pyrrolo[2,3-b]pyridin-5-yl)acetic acid] | 18.04 µM |
| Cc1nc2c(c(C)c(C)n2Cc2ccncc2)c(-c2ccc(Cl)cc2)c1C(OC(C)(C)C)C(=O)O (stereo not drawn) [Example 10, 2-Tert-butoxy-2-(4-(4-chlorophenyl)-2,3,6-trimethyl-1-(pyridin-4-ylmethyl)-1H-pyrrolo[2,3-b]pyridin-5-yl)acetic acid] | >203 µM |
| Cc1nc2c(c(C)c(C)n2Cc2ccccc2C#N)c(-c2ccc(Cl)cc2)c1C(OC(C)(C)C)C(=O)O (stereo not drawn) [Example 11, 2-Tert-butoxy-2-(4-(4-chlorophenyl)-1-(2-cyanobenzyl)-2,3,6-trimethyl-1H-pyrrolo[2,3-b]pyridin-5-yl)acetic acid] | 15.19 µM |
| Cc1nc2c(c(C)c(C)n2Cc2cccnc2)c(-c2ccc(Cl)cc2)c1C(OC(C)(C)C)C(=O)O (stereo not drawn) [Example 12, 2-Tert-butoxy-2-(4-(4-chlorophenyl)-2,3,6-trimethyl-1-(pyridin-3-ylmethyl)-1H-pyrrolo[2,3-b]pyridin-5-yl)acetic acid] | 56.14 µM |
| Cc1nc2c(c(C)c(C)n2Cc2ccccn2)c(-c2ccc(Cl)cc2)c1C(OC(C)(C)C)C(=O)O (stereo not drawn) [Example 13, 2-Tert-butoxy-2-(4-(4-chlorophenyl)-2,3,6-trimethyl-1-(pyridin-2-ylmethyl)-1H-pyrrolo[2,3-b]pyridin-5-yl)acetic acid] | 85.91 µM |
| Cc1cccc(Cn2c(C)c(C)c3c(-c4ccc(Cl)cc4)c(C(OC(C)(C)C)C(=O)O)c(C)nc32)n1 (stereo not drawn) [Example 14, 2-Tert-butoxy-2-(4-(4-chlorophenyl)-2,3,6-trimethyl-1-((6-methylpyridin-2-yl)methyl)-1H-pyrrolo[2,3-b]pyridin-5-yl)acetic acid] | 36.6 µM |
| CCCn1c(C)c(C)c2c(-c3ccc(Cl)cc3)c(C(OC(C)(C)C)C(=O)O)c(C)nc21 (stereo not drawn) [Example 15, 2-Tert-butoxy-2-(4-(4-chlorophenyl)-2,3,6-trimethyl-1-propyl-1H-pyrrolo[2,3-b]pyridin-5-yl)acetic acid] | 20.7 µM |
| CCCCn1c(C)c(C)c2c(-c3ccc(Cl)cc3)c(C(OC(C)(C)C)C(=O)O)c(C)nc21 (stereo not drawn) [Example 16, 2-Tert-butoxy-2-(1-butyl-4-(4-chlorophenyl)-2,3,6-trimethyl-1H-pyrrolo[2,3-b]pyridin-5-yl)acetic acid] | >219 µM |
| Cc1nc2c(c(C)c(C)n2CC(C)C)c(-c2ccc(Cl)cc2)c1C(OC(C)(C)C)C(=O)O (stereo not drawn) [Example 17, 2-Tert-butoxy-2-(4-(4-chlorophenyl)-1-isobutyl-2,3,6-trimethyl-1H-pyrrolo[2,3-b]pyridin-5-yl)acetic acid] | 17.57 µM |
| Cc1nc2c(c(C)c(C)n2CCC(C)C)c(-c2ccc(Cl)cc2)c1C(OC(C)(C)C)C(=O)O (stereo not drawn) [Example 18, 2-Tert-butoxy-2-(4-(4-chlorophenyl)-1-isopentyl-2,3,6-trimethyl-1H-pyrrolo[2,3-b]pyridin-5-yl)acetic acid] | 17.32 µM |
| Cc1nc2c(c(C)c(C)n2CN2C(=O)c3ccccc3C2=O)c(-c2ccc(Cl)cc2)c1C(OC(C)(C)C)C(=O)O (stereo not drawn) [Example 19, 2-Tert-butoxy-2-(4-(4-chlorophenyl)-1-((1,3-dioxoisoindolin-2-yl)methyl)-2,3,6-trimethyl-1H-pyrrolo[2,3-b]pyridin-5-yl)acetic acid] | >179 µM |
| C#CCn1c(C)c(C)c2c(-c3ccc(Cl)cc3)c(C(OC(C)(C)C)C(=O)O)c(C)nc21 (stereo not drawn) [Example 20, 2-Tert-butoxy-2-(4-(4-chlorophenyl)-2,3,6-trimethyl-1-(prop-2-ynyl)-1H-pyrrolo[2,3-b]pyridin-5-yl)acetic acid] | 18.77 µM |
| Cc1nc2c(c(C)c(C)n2C(C)C)c(-c2ccc(Cl)cc2)c1C(OC(C)(C)C)C(=O)O (stereo not drawn) [Example 21, 2-Tert-butoxy-2-(4-(4-chlorophenyl)-1-isopropyl-2,3,6-trimethyl-1H-pyrrolo[2,3-b]pyridin-5-yl)acetic acid] | 24.51 µM |
| Cc1nc2c(c(C)c(C)n2CC#N)c(-c2ccc(Cl)cc2)c1C(OC(C)(C)C)C(=O)O (stereo not drawn) [Example 22, 2-Tert-butoxy-2-(4-(4-chlorophenyl)-1-cyanomethyl-2,3,6-trimethyl-1H-pyrrolo[2,3-b]pyridin-5-yl)acetic acid] | 114.47 µM |
| Cc1nc2c(c(C)c(C)n2CCC#N)c(-c2ccc(Cl)cc2)c1C(OC(C)(C)C)C(=O)O (stereo not drawn) [Example 23, 2-Tert-butoxy-2-(4-(4-chlorophenyl)-1-(2-cyanoethyl)-2,3,6-trimethyl-1H-pyrrolo[2,3-b]pyridin-5-yl)acetic acid] | 25.49 µM |
| Cc1nc2c(c(C)c(C)n2CCO)c(-c2ccc(Cl)cc2)c1C(OC(C)(C)C)C(=O)O (stereo not drawn) [Example 24, 2-Tert-butoxy-2-(4-(4-chlorophenyl)-1-(2-hydroxyethyl)-2,3,6-trimethyl-1H-pyrrolo[2,3-b]pyridin-5-yl)acetic acid] | 75.04 µM |
| Cc1nc2[nH]c(C)c(C)c2c(-c2ccc(Cl)cc2)c1C(OC(C)(C)C)C(=O)O (stereo not drawn) [Example 25, 2-Tert-butoxy-2-(4-(4-chlorophenyl)-2,3,6-trimethyl-1H-pyrrolo[2,3-b]pyridin-5-yl)acetic acid] | 108 µM |
| Cc1nc2c(c(C)c(C)n2C)c(-c2ccc(Cl)cc2)c1[C@H](OC(C)(C)C)C(=O)O [Example 26, (S)-2-Tert-butoxy-2-(4-(4-chlorophenyl)-1,2,3,6-tetramethyl-1H-pyrrolo[2,3-b]pyridin-5-yl)acetic acid] | 55.84 µM |
| Cc1nc2c(c(C)c(C)n2C)c(-c2ccc(Cl)cc2)c1[C@@H](OC(C)(C)C)C(=O)O [Example 27, (R)-2-tert-butoxy-2-(4-(4-chlorophenyl)-1,2,3,6-tetramethyl-1H-pyrrolo[2,3-b]pyridin-5-yl)acetic acid] | 29 µM |
| Cc1nc2c(c(C)c(C)n2CC2CC2)c(-c2ccc(Cl)cc2)c1[C@H](OC(C)(C)C)C(=O)O [Example 28, (S)-2-Tert-butoxy-2-(4-(4-chlorophenyl)-1-(cyclopropylmethyl)-2,3,6-trimethyl-1H-pyrrolo[2,3-b]pyridin-5-yl)acetic acid] | 20.4 µM |
